Test [1] concerns the target T1, DGKα (Homo sapiens, UniProt P23743). To be noted: literature report; cited from earlier work.
Target sequence in this assay (P23743 whole entry, species assumed): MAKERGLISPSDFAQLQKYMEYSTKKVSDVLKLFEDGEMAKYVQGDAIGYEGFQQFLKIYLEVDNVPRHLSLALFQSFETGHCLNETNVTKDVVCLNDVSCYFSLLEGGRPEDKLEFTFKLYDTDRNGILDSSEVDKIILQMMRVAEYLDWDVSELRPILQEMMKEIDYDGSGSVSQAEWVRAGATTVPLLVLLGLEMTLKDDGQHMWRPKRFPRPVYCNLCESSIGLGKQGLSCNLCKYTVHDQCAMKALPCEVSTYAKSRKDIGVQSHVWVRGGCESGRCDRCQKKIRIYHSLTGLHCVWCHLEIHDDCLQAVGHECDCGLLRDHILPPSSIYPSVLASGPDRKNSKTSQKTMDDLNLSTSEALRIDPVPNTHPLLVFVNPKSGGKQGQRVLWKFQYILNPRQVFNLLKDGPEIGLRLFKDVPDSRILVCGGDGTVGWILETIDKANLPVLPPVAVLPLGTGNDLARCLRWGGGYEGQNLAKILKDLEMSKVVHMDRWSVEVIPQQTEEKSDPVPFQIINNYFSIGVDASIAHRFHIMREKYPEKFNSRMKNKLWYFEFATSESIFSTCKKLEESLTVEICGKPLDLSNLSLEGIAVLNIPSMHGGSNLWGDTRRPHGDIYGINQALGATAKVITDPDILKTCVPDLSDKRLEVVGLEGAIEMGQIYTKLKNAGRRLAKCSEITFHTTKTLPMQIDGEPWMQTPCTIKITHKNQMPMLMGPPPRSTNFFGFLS
For test [2], the target named is T1, DGKα. Description: Human DGKα kinase activity inhibition assay (ADP-Glo). In kind it is biochemical. To be noted: in vitro human DGKα kinase activity inhibition assay. Put shortly: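 C-terminally FLAG-tagged full-length human DGKα from baculovirus/insect cells (typically ~0.1 nM) phosphorylated 1,2-dioleoyl-sn-glycerol in octyl-β-D-glucopyranoside micelles in MOPS pH 7.4. ADP formed was quantified by ADP-Glo luminescence after 1 h ATP depletion at 22 °C.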
Target sequence in this assay (P23743 with tags, fused parts or gaps): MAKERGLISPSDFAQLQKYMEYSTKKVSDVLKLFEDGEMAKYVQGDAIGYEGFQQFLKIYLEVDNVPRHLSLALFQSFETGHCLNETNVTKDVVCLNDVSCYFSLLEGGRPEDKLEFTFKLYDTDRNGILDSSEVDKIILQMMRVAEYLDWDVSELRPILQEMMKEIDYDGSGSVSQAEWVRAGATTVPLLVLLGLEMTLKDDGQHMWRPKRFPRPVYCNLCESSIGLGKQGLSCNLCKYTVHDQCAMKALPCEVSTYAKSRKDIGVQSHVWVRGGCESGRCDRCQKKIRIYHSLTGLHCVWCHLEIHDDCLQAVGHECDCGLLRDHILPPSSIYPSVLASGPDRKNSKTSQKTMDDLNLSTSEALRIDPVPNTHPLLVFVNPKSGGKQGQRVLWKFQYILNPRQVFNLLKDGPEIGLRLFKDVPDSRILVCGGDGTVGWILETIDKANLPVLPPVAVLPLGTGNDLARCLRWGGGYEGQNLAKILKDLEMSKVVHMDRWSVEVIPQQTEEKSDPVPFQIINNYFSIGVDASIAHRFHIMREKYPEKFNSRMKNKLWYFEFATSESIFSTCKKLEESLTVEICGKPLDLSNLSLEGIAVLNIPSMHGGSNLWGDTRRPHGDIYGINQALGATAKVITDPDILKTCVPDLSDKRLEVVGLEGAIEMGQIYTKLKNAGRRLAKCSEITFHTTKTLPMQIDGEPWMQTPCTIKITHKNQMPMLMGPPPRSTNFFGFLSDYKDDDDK
(In general: In ADP-Glo the light output rises with the ADP produced.)

The test system of a further test is GBM tumors. To be noted: concurrent administration; literature report; cited from earlier work.

Each structure is given as a SMILES string.

For orientation: IC50 means the concentration needed to halve the response being measured.

Consider `Cc1ccc2c(C(=O)CN3CCN(C(=O)c4ccco4)CC3)c(C)[nH]c2c1` [AMB639752], for which the “inhibitory activity on DGKα” value on DGKα [1] is “micromolar”.
On to `O=C1/C(=C\C=C\c2ccco2)SC(=S)N1NS(=O)(=O)c1ccccc1` [CU-3], for which the “inhibitory activity on DGKα” value at DGKα [1] was “sub-micromolar”.
Turning to `COc1ccccc1OC1CCN(c2c(C#N)c(=O)n(C)c3ccc(C)cc23)CC1` [Example 154, 4-[4-(2-methoxyphenoxy)piperidin-1-yl]-1,6-dimethyl-2-oxo-1,2-dihydroquinoline-3-carbonitrile], at DGKα [2], it took 13 nM to reach half-maximal inhibition (IC50).
With `Cc1ccc2c(c1)c(N1CCC(Oc3ccccc3C#N)CC1)c(C#N)c(=O)n2C` [Example 155, 4-[4-(2-cyanophenoxy)piperidin-1-yl]-1,6-dimethyl-2-oxo-1,2-dihydroquinoline-3-carbonitrile], the IC50 at DGKα [2] was found to be 9.3 nM.
With `COc1ccc2c(c1)c(N1CCC(Oc3ccc(OC(F)(F)F)cc3)CC1)c(C#N)c(=O)n2C` [Example 156, 6-methoxy-1-methyl-2-oxo-4-{4-[4-(trifluoromethoxy)phenoxy]piperidin-1-yl}-1,2-dihydroquinoline-3-carbonitrile], it took 7 nM to reach half-maximal inhibition at DGKα [2] (IC50).
`Cn1c(=O)c(C#N)c(N2CCC(Oc3ccc(OC(F)(F)F)cc3)CC2)c2cc(Cl)ccc21` [Example 157, 6-chloro-1-methyl-2-oxo-4-{4-[4-(trifluoromethoxy)phenoxy]piperidin-1-yl}-1,2-dihydroquinoline-3-carbonitrile]: on DGKα [2], the IC50 is 1240 nM.
At DGKα [2], `Cc1cccc(OC2CCN(c3c(C(N)=O)c(=O)n(C)c4ccc(C)cc34)CC2)c1` [Example 158, 1,6-dimethyl-4-[4-(3-methylphenoxy)piperidin-1-yl]-2-oxo-1,2-dihydroquinoline-3-carboxamide] came in with an IC50 of 12 nM.
`COc1cccc(OC2CCN(c3c(C(N)=O)c(=O)n(C)c4ccc(C)cc34)CC2)c1` [Example 159, 4-[4-(3-methoxyphenoxy)piperidin-1-yl]-1,6-dimethyl-2-oxo-1,2-dihydroquinoline-3-carboxamide]: the IC50 against DGKα [2] was 12 nM. That is a double-digit nanomolar value.
The same measure, in the same setting: with `Cc1ccc2c(c1)c(N1CCC(Oc3ccc(OC(F)(F)F)cc3)CC1)c(C(N)=O)c(=O)n2C` [Example 160, 1,6-dimethyl-2-oxo-4-{4-[4-(trifluoromethoxy)phenoxy]piperidin-1-yl}-1,2-dihydroquinoline-3-carboxamide] the figure was 3.1 nM; with `COc1cc(C)ccc1OC1CCN(c2c(C(N)=O)c(=O)n(C)c3ccc(C)cc23)CC1` [Example 161, 4-[4-(2-methoxy-4-methylphenoxy)piperidin-1-yl]-1,6-dimethyl-2-oxo-1,2-dihydroquinoline-3-carboxamide], 21 nM; with `COc1ccccc1OC1CCN(c2c(C(N)=O)c(=O)n(C)c3ccc(C)cc23)CC1` [Example 162], 57 nM.
The same measure, in the same setting: with `Cc1ccc2c(c1)c(N1CCC(Oc3ccccc3Cl)CC1)c(C(N)=O)c(=O)n2C` [Example 163, 4-[4-(2-chlorophenoxy)piperidin-1-yl]-1,6-dimethyl-2-oxo-1,2-dihydroquinoline-3-carboxamide] the figure was 59 nM.
In turn, `Cn1c(=O)c(C(N)=O)c(N2CCC(Oc3ccc(OC(F)(F)F)cc3)CC2)c2cccc(Cl)c21` [Example 164, 8-chloro-1-methyl-2-oxo-4-{4-[4-(trifluoromethoxy)phenoxy]piperidin-1-yl}-1,2-dihydroquinoline-3-carboxamide] showed a 50% inhibitory concentration (IC50) against DGKα [2] of 37 nM. This IC50 lies about 1.6-fold lower than the previous one.
On the same count and under the same terms, with `Cn1c(=O)c(C(N)=O)c(N2CCC(Oc3ccc(OC(F)(F)F)cc3)CC2)c2cc(F)ccc21` [Example 165, 6-fluoro-1-methyl-2-oxo-4-{4-[4-(trifluoromethoxy)phenoxy]piperidin-1-yl}-1,2-dihydroquinoline-3-carboxamide] the figure was 0.17 nM.
`Cn1c(=O)c(C#N)c(N2CCC(Oc3ccc(OC(F)(F)F)cc3)CC2)c2cc(F)ccc21` [Example 166, 6-fluoro-1-methyl-2-oxo-4-{4-[4-(trifluoromethoxy)phenoxy]piperidin-1-yl}-1,2-dihydroquinoline-3-carbonitrile]: the half-inhibitory concentration (IC50) against DGKα [2] worked out at 0.97 nM.
For the molecule `Cn1c(=O)c(C#N)c(N2CCC(Oc3ccc(OC(F)(F)F)cc3)CC2)c2cc(O)ccc21` [Example 167, 6-hydroxy-1-methyl-2-oxo-4-{4-[4-(trifluoromethoxy)phenoxy]piperidin-1-yl}-1,2-dihydroquinoline-3-carbonitrile], on DGKα [2], 0.94 nM corresponded to half-maximal inhibition (IC50).
On the same count and under the same terms, the figure for `Cc1cc(Br)c2c(c1)c(N1CCC(Oc3ccc(OC(F)(F)F)cc3)CC1)c(C#N)c(=O)n2C` [Example 168, 8-bromo-1,6-dimethyl-2-oxo-4-{4-[4-(trifluoromethoxy)phenoxy]piperidin-1-yl}-1,2-dihydroquinoline-3-carbonitrile] is 556 nM; for `Cc1cc(Br)c2c(c1)c(N1CCC(Oc3cccc(Cl)c3)CC1)c(C#N)c(=O)n2C` [Example 169, 8-bromo-4-[4-(3-chlorophenoxy)piperidin-1-yl]-1,6-dimethyl-2-oxo-1,2-dihydroquinoline-3-carbonitrile] it is 2530 nM.
With `Cc1nc2sccn2c(=O)c1CCN1CCC(=C(c2ccccc2)c2ccc(F)cc2)CC1` [Example R59022], the “growth of intracranially injected GBM tumors” value in the test with GBM tumors is “decreased growth”.
Consider `Cc1nc2sccn2c(=O)c1CCN1CCC(=C(c2ccc(F)cc2)c2ccc(F)cc2)CC1` [Ritanserin], for which the “inhibitory activity on DGKα” value on DGKα [1] is “comparable activity”.

Values taken from US20230062100A1, “SUBSTITUTED AMINOQUINOLONES AS DGKALPHA INHIBITORS FOR IMMUNE ACTIVATION” (Bayer Aktiengesellschaft, priority 2019, published 2023).
